Legend:
[1] = test system: Puccinia recondita; test: Curative activity against Puccinia recondita on wheat (wheat leaf rust); assay type: in vivo; settings: wheat seedlings "Kanzler", sprayed 1 day after infection, evaluated after 7 days
Description: (§1) Evaluation is carried out by determining the infected leaf areas in percent. These percentages are converted into efficacies. The efficacy (W) is calculated as follows using Abbot's formula: […]
(§2) α corresponds to the fungal infection of the treated plants in % and β corresponds to the fungal infection of the untreated (control) plants in % An efficacy of 0 means that the infection level of the treated plants corresponds to that of the untreated control plants; an efficacy of 100 means that the treated plants were not infected.
(§3) Colby formula: E=x+y−x·y/100
Curative Activity Against Puccinia recondita on Wheat (Wheat Leaf Rust) Leaves of potted wheat seedlings of the variety “Kanzler” were dusted with spores of leaf rust (Puccinia recondita). […] During this time, the spores germinated and the germinal tubes penetrated into the leaf tissue. […] After the spray coating had dried on, the test plants were cultivated in a greenhouse at from 20 to 22° C. and from 65 to 70% of relative atmospheric humidity for 7 days. Thereafter, the extent of rust fungus development on the leaves was determined.

[2] = test system: Erysiphe graminis forma specialis tritici; test: Activity against powdery mildew of wheat; assay type: in vivo; settings: wheat seedlings "Kanzler", sprayed 24 hours before inoculation, evaluated after 7 days
Description: as §1, §2, §3
Activity Against Powdery Mildew of Wheat
The test plants were subsequently kept in a greenhouse at 20 to 24° C. and 60 to 90% relative atmospheric humidity. After 7 days, the extent of the mildew development was determined visually in % infection of the total leaf area.

SMILES | Efficacy in % of the untreated control ([1]; 16 ppm in the spray liquor) | Efficacy in % of the untreated control ([2]; 1 ppm in the spray liquor) | Efficacy in % of the untreated control ([2]; 4 ppm in the spray liquor) | Efficacy in % of the untreated control ([1]; 63 ppm in the spray liquor) | Efficacy in % of the untreated control ([2]; 16 ppm in the spray liquor)
CC(Cc1ccc(C(C)(C)C)cc1)CN1C[C@@H](C)O[C@@H](C)C1 (stereo partly shown) [Compound IIa, fenpropimorph] | 20% | 0% | 20% | – | –
CCCCCCCCCCCCCN1CC(C)OC(C)C1 (stereo not shown) [Compound IIc, tridemorph] | – | – | 0% | 0% | 20%
CC(Cc1ccc(C(C)(C)C)cc1)CN1CCCCC1 (stereo not shown) [Compound IIb, fenpropidin] | 20% | 0% | 30% | – | –
O=C(Nc1ccccc1-c1ccc(F)cc1)c1cccnc1Cl [Compound I.1] | 0% | – | 0% | 0% | 0%
O=C(Nc1ccccc1-c1ccc(Cl)cc1)c1cccnc1Cl [Compound I.2] | 0% | 0% | 0% | – | –

Source: patent publication US6777411B1, “Fungicide mixtures based on pyride amides and morpholine derivatives or piperidine derivatives” (priority 1997, dated 2004)
